The source of these data is patent publication US20140329863A1 (priority 2011, published 2014).

Data set [1] is described as follows: Single-dose pharmacokinetics in FVB mice (oral gavage, IV).
Data set [2] concerns PrP^Sc in dividing ScN2a-cl3 cells. The class given is cell-based, mouse.
The nature of data set [3]: Tolerability / toxicity on repeated dosing in mice.
Setting [4] is: cell culture media, plasma or biological fluid.
Setting [5] is: pH 2 (HCl) buffer, pH 2, simulated gastric fluid.
Setting [6] is: pH 7.4 (phosphate) buffer, pH 7.4, aqueous buffer.
The mark [7] stands for this setting: Table 29, 2-AMT analogs tested for potency, usually n = 3 or more.
[8] abbreviates: IV 1 mg/kg, plasma, female FVB mice.
Setting [9] is: female, FVB, mouse, brain, po, 40 mg/kg.
[10] abbreviates: female, FVB, mouse, plasma, po, 40 mg/kg.

Values after ≈ are worked out from the molar mass of the structure shown. Like-named read-outs stand apart in the source and are kept apart here.

Regarding `c1ccc2cc(Nc3nc(-c4ccncc4)cs3)ncc2c1` [IND85, Isoquinolin-3-yl-(4-pyridin-4-yl-thiazol-2-yl)-amine], the solubility in “physchem” (FaSSIF) was 3 µM (≈ 0.913 µg/mL); in “physchem” (setting [4]), 116 µM (≈ 35.3 µg/mL); in “physchem” (setting [5]), 196 µM (≈ 59.7 µg/mL); in “physchem” (setting [6]), less than 1 µM. The “Brain Cmax/EC50 ratio, 40 mg/kg” value in data set [1] (single oral dose 40 mg/kg) was “better Cmax:EC50 ratio at either dose”. The EC50 in data set [2] (AMT analogs tested for potency) and in data set [2] (setting [7]) was 307 nM each time.

For `C(=N\Nc1ccc(-c2cnco2)cc1)/c1ccncc1` [IND54304, reference compound], in data set [1] (setting [8]), the AUClast worked out at 219 ± 33.0 ng·h/mL, the Cmax stood at 466 ± 37.4 ng/mL, the Tmax was determined as 4.98 min and the t1/2 worked out at 12.6 min. The “% F” value in data set [1] (PO 40 mg/kg vs IV 1 mg/kg, plasma, female FVB mice) is recorded as 24.8%. This compound also showed an AUClast in data set [1] (PO 40 mg/kg, brain, female FVB mice) of 282 ± 27.2 ng·h/g. In data set [1] (setting [9]), the Cmax is 123 ± 42.7 ng/g and the Tmax was 120 min. Also, in data set [1] (female, FVB, mouse, brain/plasma, po, 40 mg/kg), the partition ratio (Kp) was 0.52. Also, in data set [1] (setting [10]), the AUC(0-t) was 544 ± 16.8 ng·h/mL, the concentration peaked (Cmax) at 220 ± 99.4 ng/mL and the time to peak (Tmax) was found to be 30 min. Also, the half-life in data set [1] (female, FVB, mouse, plasma, po, 40 mg/kg, t1/2, PO 40 mg/kg, female FVB mice) is 60 min. Further, the tolerability result in data set [3] (25, 50, 100, 150 mg/kg for 3 days in liquid diet) is “tolerated”. In data set [3] (≧150 mg/kg/day for 8 days), the animals dying was 2/4.

`Cc1ccc(Nc2nc(-c3cc(-c4ccccc4)no3)cs2)nc1` [IND33, (5-Methyl-pyridin-2-yl)-[4-(3-phenyl-isoxazol-5-yl)-thiazol-2-yl]-amine]: the solubility was 70 µM (≈ 23.4 µg/mL) in the data set “physchem” (FaSSIF), 225 µM (≈ 75.2 µg/mL) in “physchem” (setting [4]), 1 µM (≈ 0.334 µg/mL) in “physchem” (setting [5]) and less than 1 µM in the data set “physchem” (setting [6]). Moreover, the EC50 in data set [2] (AMT analogs tested for potency) and in data set [2] (setting [7]) was 940 nM each time.

In the case of `COc1ccc(-c2csc(Nc3ccc4ccccc4n3)n2)cc1OC` [IND47, [4-(3,4-Dimethoxy-phenyl)-thiazol-2-yl]-quinolin-2-yl-amine], the solubility in the data set “physchem” (FaSSIF) is 5 µM (≈ 1.82 µg/mL); in “physchem” (setting [4]), 52 µM (≈ 18.9 µg/mL); in the data set “physchem” (setting [5]), less than 1 µM; in the data set “physchem” (setting [6]), less than 1 µM. Further, the EC50 in data set [2] (AMT analogs tested for potency) and in data set [2] (setting [7]) was 426 nM throughout.

Regarding `Cc1ccnc(Nc2nc(-c3ccncc3)cs2)c1` [IND52, (4-Methyl-pyridin-2-yl)-(4-pyridin-4-yl-thiazol-2-yl)-amine], the solubility in the data set “physchem” (FaSSIF) was 2 µM (≈ 0.537 µg/mL); in the data set “physchem” (setting [4]) it was 76 µM (≈ 20.4 µg/mL); in the data set “physchem” (setting [5]), 215 µM (≈ 57.7 µg/mL); in the data set “physchem” (setting [6]) it was 1 µM (≈ 0.268 µg/mL). Also, the EC50 in data set [2] (AMT analogs tested for potency) and in data set [2] (setting [7]) was 4950 nM in each case.
